Experimental findings from US11065253B2, “Arylquinazolines” (Merck Patent GmbH, priority 2013, dated 2021) are described below.

In general, IC50 refers to the concentration that gives 50% inhibition.

One experiment concerns phospho-serine 2056 DNA-PK in HCT116 cells. In words: DNA-PK phosphorylation at serine 2056 (cellular), ELISA in bleomycin-treated HCT116 cells. The class given is cell-based. The note with it: Homo sapiens, HCT-116, 6 h, cellular; HCT116 cells, 10 μM bleomycin, six hours; read-out: IC50 pDNA-PK. In outline: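 Chemiluminescent ELISA quantified DNA-PK Ser2056 phosphorylation relative to total DNA-PKcs in HCT116 cells. Cells received compounds together with 10 μM bleomycin for 6 h; DMSO served as blank.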
Background: An ELISA detects its analyte on a solid surface through an enzyme-linked reagent.
In the case of `OC(c1ccc(F)c(-c2ncnc3cc(N4CCOCC4)ccc23)c1)c1ncccc1C(F)(F)F` (centres unmarked) [Example 80, [4-Fluoro-3-(7-morpholin-4-yl-quinazolin-4-yl)-phenyl]-(3-trifluoro-methylpyridin-2-yl)-methanol], the IC50 was 0.5 to 5 µM.

In the case of `Cc1cnc(C)c(C(O)c2cc(-c3ncnc4cc(N5CCOCC5)ccc34)c(F)cc2F)n1` (centres unmarked) [Example 88, [2,4-Difluoro-5-(7-morpholin-4-yl-quinazolin-4-yl)-phenyl]-(3,6-dimethyl-pyrazin-2-yl)methanol], the half-inhibitory concentration (IC50) was below 0.5 µM.

`OC(c1ccc(F)c(-c2ncnc3cc(N4CCOCC4)ccc23)c1)c1c(F)cncc1Cl` (centres unmarked) [Example 77, (3-Chloro-5-fluoro-pyridin-4-yl)-[4-fluoro-3-(7-morpholin-4-yl-quinazolin-4-yl)phenyl]-methanol]: the IC50 was below 0.5 µM.

In the case of `OC(c1ccc(F)c(-c2ncnc3cc(N4CCOCC4)ccc23)c1)c1cncc(F)c1Cl` (centres unmarked) [Example 2, (4-Chloro-5-fluoropyridin-3-yl)-[4-fluoro-3-(7-morpholin-4-ylquinazolin-4-yl)phenyl]methanol], the IC50 is below 0.5 µM.

As for `O=c1ccc(C(O)c2cc(-c3ncnc4cc(N5CCOCC5)ccc34)c(F)cc2Cl)nn1CCO` (centres unmarked) [Example 99, 6-{[2-Chloro-4-fluoro-5-(7-morpholin-4-yl-quinazolin-4-yl)phenyl]-hydroxymethyl}-2-(2-hydroxy-ethyl)-2H-pyridazin-3-one], the IC50 lay within 0.5 to 5 µM.

Still in this experiment, the particulars now being: Homo sapiens, HCT-116, cellular DNA-PK phosphorylation at serine 2056, HCT116 cells; read-out: IC50 pDNA-PK.
As for `O=C1CCCN1c1nccnc1C(O)c1ccc(F)c(-c2ncnc3cc(N4CCOCC4)ccc23)c1` (centres unmarked) [Example 425, 1-(3-{[4-Fluoro-3-(7-morpholin-4-yl-quinazolin-4-yl)-phenyl]hydroxy-methyl}pyrazin-2-yl)-pyrrolidin-2-one], the 50% inhibitory concentration (IC50) was 10 to 30 µM.

Take `CCn1c(C(O)c2ccc(F)c(-c3ncnc4cc(N5CCOCC5)ccc34)c2)cccc1=O` (centres unmarked) [Example 398, 1-Ethyl-6-{[4-fluoro-3-(7-morpholin-4-yl-quinazolin-4-yl)-phenyl]hydroxy-methyl}-1H-pyridin-2-one]: the 50% inhibitory concentration (IC50) lay in the range of 0.5 to 5 µM.

The experiment is the same for the next values; noted with them: Homo sapiens, HCT-116, phospho-serine 2056 DNA-PK, bleomycin-treated HCT116 cells; class symbols A-D; read-out: IC50 pDNA-PK.
As to `OC(c1ccccn1)c1cc(-c2ncnc3cc(N4CCOCC4)ccc23)c(F)cc1F` (centres unmarked) [Example 218, [2,4-Difluoro-5-(7-morpholin-4-yl-quinazolin-4-yl)-phenyl]pyridin-2-yl-methanol], the IC50 is below 0.5 µM.

As to `OCCNc1nccnc1C(O)c1ccc(F)c(-c2ncnc3cc(N4CCOCC4)ccc23)c1` (centres unmarked) [Example 106, 2-(3-{[4-fluoro-3-(7-morpholin-4-yl-quinazolin-4-yl)-phenyl]hydroxy-methyl}pyrazin-2-yl-amino)ethanol], the IC50 lay within 5 to 10 µM.

Consider `OC(c1cc(F)cc(-c2ncnc3cc(N4CCOCC4)ccc23)c1)c1nccs1` (centres unmarked) [Example 169, [3-Fluoro-5-(7-morpholin-4-yl-quinazolin-4-yl)-phenyl]thiazol-2-yl-methanol], for which the IC50 was in the range of 10 to 30 µM.

On to `OC(c1cccnc1)c1cc(-c2ncnc3cc(N4CCOCC4)ccc23)c(F)cc1F` (centres unmarked) [Example 217, [2,4-Difluoro-5-(7-morpholin-4-yl-quinazolin-4-yl)-phenyl]pyridin-3-yl-methanol], for which the IC50 was below 0.5 µM.

Regarding `Cc1nc(C(O)c2cc(-c3ncnc4cc(N5CCOCC5)ccc34)cnc2F)sc1C` (centres unmarked) [Example 205, (4,5-Dimethyl-thiazol-2-yl)-[2-fluoro-5-(7-morpholin-4-yl-quinazolin-4-yl)-pyridin-3-yl]-methanol], the IC50 is 10 to 30 µM.

The experiment is the same for the next values; noted with them: Homo sapiens, HCT-116, phospho-serine 2056 DNA-PK, bleomycin-treated HCT116 cells; read-out: IC50 pDNA-PK.
`Cc1ncc(C(O)c2ccc(F)c(-c3ncnc4cc(N5CCOCC5)ccc34)c2)nc1C` (centres unmarked) [Example 314, (5,6-Dimethyl-pyrazin-2-yl)-[4-fluoro-3-(7-morpholin-4-yl-quinazolin-4-yl)-phenyl]methanol]: the half-maximal inhibitory concentration (IC50) was in the range of 0.5 to 5 µM.

For the compound `COc1nccnc1C(C(N)=O)c1cc(-c2ncnc3cc(N4CCOCC4)ccc23)c(F)cc1F` (centres unmarked) [Example 319, 2-[2,4-Difluoro-5-(7-morpholin-4-ylquinazolin-4-yl)phenyl]-2-(3-methoxypyrazin-2-yl)-acetamide], the IC50 fell in the range of 5 to 10 µM.

With `Cc1nccnc1C(C(N)=O)c1cc(-c2ncnc3cc(N4CCOCC4)ccc23)c(F)cc1Cl` (centres unmarked) [Example 324, 2-[2-Chloro-4-fluoro-5-(7-morpholin-4-yl-quinazolin-4-yl)-phenyl]-2-(3-methyl-pyrazin-2-yl)-acetamide], the half-maximal inhibitory concentration (IC50) is 0.5 to 5 µM.

Turning to `CNC(=O)C(c1cc(-c2ncnc3cc(N4CCOCC4)ccc23)c(F)cc1Cl)c1nccnc1OC` (centres unmarked) [Example 229, 2-[2-Chloro-4-fluoro-5-(7-morpholin-4-yl-quinazolin-4-yl)-phenyl]-2-(3-methoxypyrazin-2-yl)-N-methyl-acetamide], the IC50 is 0.5 to 5 µM.

As for `Cn1nc(C(C(N)=O)c2ccc(F)c(-c3ncnc4cc(N5CCOCC5)ccc34)c2)ccc1=O` (centres unmarked) [Example 317, 2-[4-Fluoro-3-(7-morpholin-4-yl-quinazolin-4-yl)-phenyl]-2-(1-methyl-6-oxo-1,6-dihydro-pyridazin-3-yl)-acetamide], the IC50 was 10 to 30 µM.

`Cc1cc(C(C(N)=O)c2cc(-c3ncnc4cc(N5CCOCC5)ccc34)c(F)cc2Cl)n(C)c(=O)c1` (centres unmarked) [Example 334, 2-[2-Chloro-4-fluoro-5-(7-morpholin-4-yl-quinazolin-4-yl)-phenyl]-2-(1,4-dimethyl-6-oxo-1,6-dihydropyridin-2-yl)-acetamide]: the IC50 lay within 10 to 30 µM.

As to `OC(c1ccc(F)c(-c2ncnc3cc(N4CCOCC4)ccc23)c1)c1nncc2ccsc12` (centres unmarked) [Example 332, [4-Fluoro-3-(7-morpholin-4-yl-quinazolin-4-yl)-phenyl]thieno[2,3-d}-pyridazin-7-yl-], the IC50 was below 0.5 µM.

Consider `NC(=O)C(c1cc(-c2ncnc3cc(N4CCOCC4)ccc23)ccc1Cl)c1nccnc1Cl` (centres unmarked) [Example 315, 2-[2-Chloro-5-(7-morpholin-4-yl-quinazolin-4-yl)-phenyl]-2-(3-chloro-pyrazin-2-yl)-acetamide], for which the concentration for half-maximal inhibition (IC50) was 10 to 30 µM.

Still in this experiment, the particulars now being: cellular DNA-PK phosphorylation at serine 2056, HCT116 cells; read-out: IC50 pDNA-PK.
`O[C@@H](c1cc(-c2ncnc3cc(N4CCOCC4)ccc23)c(F)cc1Cl)c1nccn2ccnc12` (single isomer, unassigned) [Example 396]: the half-maximal inhibitory concentration (IC50) was below 0.5 µM.

On to `COc1cncnc1C(O)c1cc(-c2ncnc3cc(N4CCOCC4)ccc23)ccc1Cl` (centres unmarked) [Example 413, [2-Chloro-5-(7-morpholin-4-yl-quinazolin-4-yl)-phenyl]-(5-methoxy-pyrimidin-4-yl)-methanol], for which the IC50 fell in the range of 0.5 to 5 µM.

For `COc1nccnc1C(O)c1cc(-c2ncnc3cc(N4CCOCC4)ccc23)c(F)cc1F` (centres unmarked) [Example 467, [2,4-Difluoro-5-(7-morpholin-4-yl-quinazolin-4-yl)-phenyl]-(3-methoxy-pyrazin-2-yl)-methanol], the IC50 was below 0.5 µM.

`COc1nccnc1[C@@H](O)c1cc(-c2ncnc3cc(N4CCOCC4)ccc23)ccc1Cl` [Example 411, (S)-[2-Chloro-5-(7-morpholin-4-yl-quinazolin-4-yl)-phenyl]-(3-methoxy-pyrazin-2-yl)-methanol (Ena 1)]: the half-maximal inhibitory concentration (IC50) lay within 0.5 to 5 µM.

In the case of `Cn1c(C(O)c2cc(-c3ncnc4cc(N5CCOCC5)ccc34)c(F)cc2Cl)cccc1=O` (centres unmarked) [Example 383, 6-{[2-Chloro-4-fluoro-5-(7-morpholin-4-yl-quinazolin-4-yl)-phenyl]hydroxy-methyl}-1-methyl-1H-pyridin-2-one (Ena 1)], the IC50 was below 0.5 µM.

As for `OC(c1cc(-c2ncnc3cc(N4CCOCC4)ccc23)c(F)cc1F)c1nccnc1OC(F)F` (centres unmarked) [Example 450, (3-Difluoromethoxy-pyrazin-2-yl)-[2,4-difluoro-5-(7-morpholin-4-yl-quinazolin-4-yl)-phenyl]methanol], the concentration for half-maximal inhibition (IC50) was 5 to 10 µM.

The same experiment, now with this note: cellular; HCT116 cells, 10 μM bleomycin, six hours; read-out: IC50 pDNA-PK.
Take `OC(c1cccnn1)c1cc(-c2ncnc3cc(N4CCOCC4)ccc23)c(F)cc1Cl` (centres unmarked) [Example 30, [2-Chloro-4-fluoro-5-(7-morpholin-4-yl-quinazolin-4-yl)phenyl]-pyridazin-3-ylmethanol]: the IC50 is below 0.5 µM.

Take `COc1nccnc1C(O)c1ccc(F)c(-c2ncnc3cc(N4CCOCC4)ccc23)c1` (centres unmarked) [Example 38, [4-Fluoro-3-(7-morpholin-4-yl-quinazolin-4-yl)phenyl]-(3-methoxy-pyrazin-2-yl)methanol]: the IC50 is below 0.5 µM.

As to `OC(c1ccc(F)c(-c2ncnc3cc(N4CCOCC4)sc23)c1)c1nccnc1Cl` (single isomer, unassigned) [Example 24, (3-Chloro-pyrazin-2-yl)-[4-fluoro-3-(6-morpholin-4-yl-thieno-[3,2-d}pyrimidin-4-yl)-phenyl]methanol], the IC50 is below 0.5 µM.

The experiment is the same for the next values; noted with them: phospho-serine 2056 DNA-PK, bleomycin-treated HCT116 cells; class symbols A-D; read-out: IC50 pDNA-PK.
As to `OC(c1cc(F)c(F)c(-c2ncnc3cc(N4CCOCC4)ccc23)c1)c1nccs1` (centres unmarked) [Example 178, [3,4-Difluoro-5-(7-morpholin-4-yl-quinazolin-4-yl)-phenyl]thiazol-2-yl-methanol], the IC50 lay within 0.5 to 5 µM.

Still in this experiment, the particulars now being: phospho-serine 2056 DNA-PK, bleomycin-treated HCT116 cells; read-out: IC50 pDNA-PK.
Regarding `[2H]C1([2H])OC([2H])([2H])C([2H])([2H])N(c2ccc3c(-c4cc(C(O)c5ccc(OC)nn5)c(Cl)cc4F)ncnc3c2)C1([2H])[2H]` (centres unmarked) [Example 239, [2-Chloro-4-fluoro-5-[7-(2,2,3,3,5,5,6,6-octadeuterio-morpholin-4-yl)quinazolin-4-yl]phenyl]-(6-methoxypyridazin-3-yl)methanol], the IC50 lay within 10 to 30 µM.

`OC(c1ccc(F)c(-c2ncnc3cc(N4CCOCC4)ccc23)c1)c1nnc2ccccn12` (centres unmarked) [Example 343, [4-Fluoro-3-(7-morpholin-4-yl-quinazolin-4-yl)-phenyl]-[1,2,4]-triazolo[4,3-a]pyridin-3-ylmethanol (Ena 2)]: the IC50 lay in the range of 0.5 to 5 µM.
